{"source": "patent US11357817B2", "about": "“Immunoproteasome inhibitor” (The Regents of the University of California, priority 2017, dated 2022)", "key": {"[1]": {"tested_on": "20S Plasmodium proteasome (Pf20S) β1 subunit", "test": "Proteasome activity assay, Pf20S β1 (z-LLE-AMC)", "type": "biochemical, Plasmodium falciparum", "settings": "450 nM compound; proteasome not named", "protocol": "(§1) Asynchronous P. falciparum cultures were grown up to 4-5% parasitemia, in 300 mL of RPMI media at 5.0% hematocrit. […] The PBS was removed and lysis buffer (0.15% saponin in PBS) was added on ice in 10 pellet volumes. Upon lysis of red blood cells, indicated by a clear red supernatant, the lysed cultures were centrifuged at 3200×g for 12 minutes at 4° C. The supernatant was removed by aspiration and the cells were washed twice using chilled PBS in microcentrifuge tubes. The cell pellets were then incubated on ice for 1 hour with occasional vortexing in a buffer consisting of 20 mM Tris-HCl pH 7.5, 5 mM MgCl2, 1 mM DTT, 100 μM E-64 and 1 mM AEBSF. This sample was then subjected to 3 rounds of freezing (−80° C.) and thawing (37° C.) and centrifugation at 6000×g for 10 min. The supernatant containing soluble P. falciparum protein was quantified by the BCA method (Pierce).\n(§2) P. falciparum proteasome was enriched by two-chromatographic steps reported previously (10). […] The AMC fluorophore release was monitored at Ex 340/Em 465 nm at 24° C. using a Synergy HTX multi-mode reader (Biotek). […] Proteins were eluted using 20 mM Tris-HCl pH 7.5, 100 mM NaCl, 10% glycerol and 1 mL fractions were collected, evaluated for protease activity and pooled. […]"}, "[2]": {"tested_on": "HepG2 cells", "test": "HepG2 cytotoxicity assay", "type": "cell-based", "settings": "Homo sapiens", "protocol": "The liver-stage and HepG2 toxicity assays were performed as previously reported (35). Briefly, HepG2-A16-CD81EGFP, human hepatocarcinoma HepG2 cells stably transformed to express the tetraspanin CD81 receptor (36, 37) and thus susceptible to P. berghei infection, were cultured at 37° C. in 5% CO2 in DMEM (Life Technologies, Calif.) supplemented with 10% FBS, 0.29 mg/ml glutamine, 100 unit penicillin and 100 μg/ml streptomycin. For both the P. berghei-luciferase and HepG2 cytotoxicity assays, 3×10^3 of the HepG2-A16-CD81EGFP cells in 5 μl of assay medium (DMEM without Phenol Red (Life Technologies, Calif.), 5% FBS, and 5× Pen Strep Glutamine (Life Technologies, Calif.)) at concentration 6×10^5 cells/ml were seeded in 1536-well plates (Greiner BioOne white solid bottom custom GNF mold) 20-26 hours prior to the actual infection. 18 hours prior to infection, 50 nl of compound in DMSO (0.5% final DMSO concentration per well) were transferred with Acoustic Transfer System (ATS) (Biosero) into the assay plates. Atovaquone (12-point serial dilution starting at 10 μM) and Puromycin (12-point serial dilution starting at 10 μM) were used as positive controls for Pb. liver stage assay and HepG2 cytotoxicity respectively. 0.5% DMSO was used as negative control for the both assays.\nAn. stephensi mosquitoes, infected with P. berghei-luciferase, were provided by the New York University Insectary. P. berghei-luciferase sporozoites were freshly dissected from the infected A. stephensi mosquito salivary glands, filtered twice through a 20 μm nylon net filter using Steriflip Vacuum-Driven Filtration System (Millipore), counted in a hemocytometer, and then adjusted to final concentration 200 sporozoites per μl in the assay media. […] The HepG2-A16-CD81EGFP cell designated for toxicity studies were left uninfected, with 5 ul of additional assay media added to each well to maintain equal concentrations of compounds with P. berghei-luciferase infected plates. After incubation at 37° C. for 48 hours the exoerythrocytic growth and HepG2-A16-CD81EGFP cell viability were quantified by a bioluminescence measurement.\nThe HepG2 cytotoxicity was assessed by removing the media through an inverted spin of the plates at 150 g for 30 s and addition of 2 μL of CellTiterGlo reagent (Promega diluted 1:2 with deionized water) per well using the MicroFlo liquid handler (BioTek). Immediately after addition of the luminescence reagent, the plates were vortexed for 10 s and read with an EnVision Multilabel reader (PerkinElmer). IC50 values were obtained as above."}, "[3]": {"tested_on": "20S Plasmodium proteasome (Pf20S) β2 subunit", "test": "Proteasome activity assay, Pf20S β2 (z-LRR-AMC)", "type": "biochemical", "settings": "450 nM compound; proteasome not named", "protocol": "as §1, §2"}, "[4]": {"tested_on": "P. falciparum Stage V gametocytes", "test": "Compound sensitivity testing of Stage V gametocytes", "type": "cell-based", "settings": "Plasmodium falciparum, read-out: IC50 against stage V gametocytes", "protocol": "Gametocytes were induced in NF54 or derived clones as previously described (33). Asexual blood stage parasites were synchronized at ring stage using 5% sorbitol for three consecutive life cycles. Once the culture reached a parasitemia of 8-10% ring stages, half of the media was exchanged to stress the parasites. Twenty-four hours later, the culture media was exchanged with fresh media and the culture was shaken overnight. The following day, the culture was treated with 50 mM N-acetyl-glucosamine (NAG) (in complete media), and new media containing NAG was added every day for 10 days to clear remaining asexual blood stage parasites and enrich for gametocytes. After 10 days, complete media without NAG was provided each day for the last two days of gametocyte development in order to obtain ˜1% gametocytemia with >80% Stage V specificity and no visible asexual blood stage parasites (assessed via Giemsa-stained thin smears). Drug Sensitivity of Stage V gametocytes were then determined using a published protocol using mitotracker red (34). Each compound was tested in technical triplicate in a ten-point concentration curve prepared by three-fold dilution starting at 12.5 μM. At least three independent experiments were carried out for EC50 determination and puromycin was used as a positive control. […]"}, "[5]": {"target": "T1, c20S (Homo sapiens, UniProt P20618+P28074)", "T1 construct": "purchased Boston Biochem", "test": "Calculation of inhibition constants (inactivation kinetics), c20S", "type": "biochemical", "protocol": "The rate of AMC release was calculated in the presence of serial dilution of each inhibitor. The rate of product formation were calculated at 30 min intervals for 4 hours, and normalized to activity DMSO control to calculate inactivation curves. Kobs values for each inhibitor concentration were calculated from inactivation curves, and inhibition constants KI and kinact were calculated by non-linear regression of Kobs and inhibitor concentration using GraphPad Prism 6 software."}}, "data": [{"smiles": "CCCCCC(=O)N[C@@H](C(=O)N[C@@H](CCCC)C(=O)N[C@@H](CC(C)C)C(=O)[C@@]1(C)CO1)C(C)C", "note": "[Analog 18, (S)-2-((R)-2-hexanamido-3-methylbutanamido)-N—((S)-4-methyl-1-((R)-2-methyloxiran-2-yl)-1-oxopentan-2-yl)hexanamide]", "values": [{"measurement": "β1 activity reduced", "setting": "[1]", "result": 6, "unit": "%"}, {"measurement": "IC50", "setting": "[2]", "result": "1240 ± 274", "unit": "nM"}, {"measurement": "β2 activity reduced", "setting": "[3]", "result": 9, "unit": "%"}, {"measurement": "IC50", "setting": "[4]", "result": 130, "unit": "nM"}, {"measurement": "Ki", "setting": "[5]; c20S", "result": 39200, "unit": "nM"}, {"measurement": "loss in potency to the human c20S proteasome", "setting": "[5]; kinact/Ki, 18 versus 1", "result": 100, "unit": "fold"}]}]}
